Reference: PMC8429728, “TNK1 is a ubiquitin-binding and 14-3-3-regulated kinase that can be targeted to block tumor growth” (Nature Communications, 2021)
Where two headings read alike, the source gives them in different places.

Key:
Test in all cases: biochemical
Design in all cases: Reaction Biology 371-kinase panel at Km ATP, per cent enzyme activity relative to DMSO, single dose in duplicate
ACK1 = target: T1, ACK1 (Homo sapiens, UniProt Q07912); settings: duplicate measurements, Km ATP
T1 construct: gene TNK2
Experimental: (§1) To assess kinase selectivity, we screened TP-5801 (300 nM) against a panel of 371 kinases in vitro. […] In addition to TNK1, only 7 other kinases were inhibited by more than 90% (Supplementary Fig. 8 and Supplementary Data 2). […] The resulting % Enzyme activity (relative to DMSO controls) were plotted in GraphPad and IC50 values were determined by sigmoidal dose-response (variable slope) curve fits, with a bottom constraint of 0.

ASK1/MAP3K5 = ASK1/MAP3K5 (Homo sapiens, UniProt Q99683); settings: duplicate measurements, Km ATP
Experimental: as §1

CDK17/cyclin Y (PCTK2) = CDK17/cyclin Y (PCTK2) (Homo sapiens, UniProt Q00537); settings: duplicate measurements, Km ATP; read-out: % Enzyme Activity (relative to DMSO controls) / TP-0005801 (0.3µM) / Data 1
Experimental: as §1

CDK5/P25 = target: T2, CDK5/P25 (Homo sapiens, UniProt Q00535); settings: duplicate measurements, Km ATP
T2 construct: p25
Experimental: as §1

CK1a1L = target: T3, CK1a1L (Homo sapiens, UniProt Q8N752); settings: duplicate measurements, Km ATP
T3 construct: gene CSNK1A1L
Experimental: as §1

DDR2 = DDR2 (Homo sapiens, UniProt Q16832); settings: duplicate measurements, Km ATP
Experimental: as §1

FRK/PTK5 = FRK/PTK5 (Homo sapiens, UniProt P42685); settings: duplicate measurements, Km ATP
Experimental: as §1

HPK1/MAP4K1 = HPK1/MAP4K1 (Homo sapiens, UniProt Q92918); settings: duplicate measurements, Km ATP
Experimental: as §1

KSR2 = KSR2 (Homo sapiens, UniProt Q6VAB6); settings: duplicate measurements, Km ATP
Experimental: as §1

MAPKAPK2 = MAPKAPK2 (Homo sapiens, UniProt P49137); settings: duplicate measurements, Km ATP
Experimental: as §1

NLK = NLK (Homo sapiens, UniProt Q9UBE8); settings: duplicate measurements, Km ATP
Experimental: as §1

PKCiota = target: T4, PKCiota (Homo sapiens, UniProt P41743); settings: duplicate measurements, Km ATP
T4 construct: gene PRKCI
Experimental: as §1

PKCmu/PRKD1 = PKCmu/PRKD1 (Homo sapiens, UniProt Q15139); settings: duplicate measurements, Km ATP
Experimental: as §1

PLK4/SAK = PLK4/SAK (Homo sapiens, UniProt O00444); settings: duplicate measurements, Km ATP
Experimental: as §1

SIK2 = SIK2 (Homo sapiens, UniProt Q9H0K1); settings: duplicate measurements, Km ATP
Experimental: as §1

STK32B/YANK2 = STK32B/YANK2 (Homo sapiens, UniProt Q9NY57); settings: duplicate measurements, Km ATP
Experimental: as §1

STK38L/NDR2 = STK38L/NDR2 (Homo sapiens, UniProt Q9Y2H1); settings: duplicate measurements, Km ATP
Experimental: as §1

TESK2 = TESK2 (Homo sapiens, UniProt Q96S53); settings: duplicate measurements, Km ATP
Experimental: as §1

TSSK2 = TSSK2 (Homo sapiens, UniProt Q96PF2); settings: duplicate measurements, Km ATP
Experimental: as §1

c-Src = c-Src (Homo sapiens, UniProt P12931); settings: duplicate measurements, Km ATP
Experimental: as §1

[1] = read-out: % Enzyme Activity (relative to DMSO controls) / TP-0005801 (0.3µM) / Data 1
[2] = read-out: % Enzyme Activity (relative to DMSO controls) / TP-0005801 (0.3µM) / Data 2

Chain of TSSK2 (Q96PF2 whole entry): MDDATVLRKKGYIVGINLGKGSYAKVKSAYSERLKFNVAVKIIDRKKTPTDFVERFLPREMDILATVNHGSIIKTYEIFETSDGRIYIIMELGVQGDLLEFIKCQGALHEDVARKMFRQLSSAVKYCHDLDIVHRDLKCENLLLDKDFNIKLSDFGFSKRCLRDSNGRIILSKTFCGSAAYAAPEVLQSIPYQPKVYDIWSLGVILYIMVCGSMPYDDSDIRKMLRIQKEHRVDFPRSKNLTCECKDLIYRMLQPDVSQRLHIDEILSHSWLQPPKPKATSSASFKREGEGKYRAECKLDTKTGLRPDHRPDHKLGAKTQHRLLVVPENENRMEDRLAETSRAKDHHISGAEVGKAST
T2 sequence (Q00535 whole entry): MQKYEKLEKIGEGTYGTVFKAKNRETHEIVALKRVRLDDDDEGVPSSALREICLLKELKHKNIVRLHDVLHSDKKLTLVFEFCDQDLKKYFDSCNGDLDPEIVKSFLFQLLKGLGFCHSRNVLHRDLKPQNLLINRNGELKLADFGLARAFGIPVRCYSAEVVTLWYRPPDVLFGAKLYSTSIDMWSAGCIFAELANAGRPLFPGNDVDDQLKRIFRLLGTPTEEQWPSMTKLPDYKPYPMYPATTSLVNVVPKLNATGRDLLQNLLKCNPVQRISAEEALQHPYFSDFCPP
T2 sequence (Q15078 whole entry partner): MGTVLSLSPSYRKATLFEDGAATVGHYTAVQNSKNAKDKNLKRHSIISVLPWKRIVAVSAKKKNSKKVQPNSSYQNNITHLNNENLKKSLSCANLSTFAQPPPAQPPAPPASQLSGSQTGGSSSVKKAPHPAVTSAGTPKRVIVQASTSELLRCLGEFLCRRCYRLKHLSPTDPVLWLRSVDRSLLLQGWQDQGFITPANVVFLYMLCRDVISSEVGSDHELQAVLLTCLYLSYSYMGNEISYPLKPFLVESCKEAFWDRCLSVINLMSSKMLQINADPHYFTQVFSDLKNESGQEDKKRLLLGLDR
Chain of FRK/PTK5 (P42685 whole entry): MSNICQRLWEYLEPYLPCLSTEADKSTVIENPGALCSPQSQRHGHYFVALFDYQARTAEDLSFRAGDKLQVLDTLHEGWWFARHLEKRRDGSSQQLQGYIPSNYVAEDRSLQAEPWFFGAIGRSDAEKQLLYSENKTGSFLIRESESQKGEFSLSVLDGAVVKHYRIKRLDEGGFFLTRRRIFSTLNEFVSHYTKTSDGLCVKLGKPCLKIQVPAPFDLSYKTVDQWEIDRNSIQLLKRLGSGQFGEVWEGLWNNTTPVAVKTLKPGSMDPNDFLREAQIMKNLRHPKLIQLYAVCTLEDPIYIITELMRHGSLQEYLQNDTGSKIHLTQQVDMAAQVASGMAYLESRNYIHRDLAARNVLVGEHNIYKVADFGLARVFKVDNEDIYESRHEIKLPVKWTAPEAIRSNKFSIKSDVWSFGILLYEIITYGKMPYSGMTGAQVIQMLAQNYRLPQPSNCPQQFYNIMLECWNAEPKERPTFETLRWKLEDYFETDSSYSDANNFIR
T4 sequence (P41743 whole entry): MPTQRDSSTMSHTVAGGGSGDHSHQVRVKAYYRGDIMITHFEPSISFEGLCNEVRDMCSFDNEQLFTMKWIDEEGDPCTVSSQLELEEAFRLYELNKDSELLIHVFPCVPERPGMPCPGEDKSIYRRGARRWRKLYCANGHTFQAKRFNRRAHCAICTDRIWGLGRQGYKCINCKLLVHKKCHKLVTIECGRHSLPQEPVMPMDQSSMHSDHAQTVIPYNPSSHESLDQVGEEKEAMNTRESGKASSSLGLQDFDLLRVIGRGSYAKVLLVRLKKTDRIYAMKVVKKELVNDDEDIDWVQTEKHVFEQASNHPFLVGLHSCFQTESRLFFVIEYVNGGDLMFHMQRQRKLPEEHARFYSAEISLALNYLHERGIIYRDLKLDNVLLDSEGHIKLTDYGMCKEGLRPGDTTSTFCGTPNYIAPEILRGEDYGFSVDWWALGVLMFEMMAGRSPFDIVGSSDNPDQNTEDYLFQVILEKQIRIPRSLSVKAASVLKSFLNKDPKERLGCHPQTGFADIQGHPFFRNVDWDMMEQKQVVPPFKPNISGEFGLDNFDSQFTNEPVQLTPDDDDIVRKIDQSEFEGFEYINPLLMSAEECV
Chain of TESK2 (Q96S53 whole entry): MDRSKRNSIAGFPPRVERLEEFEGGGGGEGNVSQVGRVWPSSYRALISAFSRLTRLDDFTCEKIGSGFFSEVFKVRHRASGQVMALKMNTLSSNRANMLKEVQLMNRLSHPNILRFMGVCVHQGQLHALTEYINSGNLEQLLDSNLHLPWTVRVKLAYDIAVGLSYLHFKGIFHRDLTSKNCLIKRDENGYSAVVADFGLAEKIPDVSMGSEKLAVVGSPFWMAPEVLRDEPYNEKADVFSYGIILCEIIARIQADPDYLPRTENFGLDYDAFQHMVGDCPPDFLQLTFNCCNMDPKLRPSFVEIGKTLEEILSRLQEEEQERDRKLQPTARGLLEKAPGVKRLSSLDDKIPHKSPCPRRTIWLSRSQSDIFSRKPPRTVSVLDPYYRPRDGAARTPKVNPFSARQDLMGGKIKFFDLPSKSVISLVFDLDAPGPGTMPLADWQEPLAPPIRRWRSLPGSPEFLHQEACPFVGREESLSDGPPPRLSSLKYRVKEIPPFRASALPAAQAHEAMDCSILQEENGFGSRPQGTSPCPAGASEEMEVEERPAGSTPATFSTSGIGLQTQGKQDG
Chain of NLK (Q9UBE8 whole entry): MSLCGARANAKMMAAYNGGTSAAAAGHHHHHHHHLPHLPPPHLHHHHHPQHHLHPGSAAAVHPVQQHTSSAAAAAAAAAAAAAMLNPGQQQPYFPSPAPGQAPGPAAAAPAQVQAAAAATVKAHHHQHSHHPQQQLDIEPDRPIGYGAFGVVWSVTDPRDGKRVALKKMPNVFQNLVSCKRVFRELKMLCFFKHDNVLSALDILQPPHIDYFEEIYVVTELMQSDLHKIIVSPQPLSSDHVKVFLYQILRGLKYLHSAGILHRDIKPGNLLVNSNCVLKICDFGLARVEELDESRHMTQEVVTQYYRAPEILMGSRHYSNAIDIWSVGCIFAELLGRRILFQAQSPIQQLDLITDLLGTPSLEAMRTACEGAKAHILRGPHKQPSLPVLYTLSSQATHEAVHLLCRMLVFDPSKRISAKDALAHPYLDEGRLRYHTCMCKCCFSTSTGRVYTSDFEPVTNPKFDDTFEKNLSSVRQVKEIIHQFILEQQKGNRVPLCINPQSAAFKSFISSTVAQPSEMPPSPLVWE
Chain of SIK2 (Q9H0K1 whole entry): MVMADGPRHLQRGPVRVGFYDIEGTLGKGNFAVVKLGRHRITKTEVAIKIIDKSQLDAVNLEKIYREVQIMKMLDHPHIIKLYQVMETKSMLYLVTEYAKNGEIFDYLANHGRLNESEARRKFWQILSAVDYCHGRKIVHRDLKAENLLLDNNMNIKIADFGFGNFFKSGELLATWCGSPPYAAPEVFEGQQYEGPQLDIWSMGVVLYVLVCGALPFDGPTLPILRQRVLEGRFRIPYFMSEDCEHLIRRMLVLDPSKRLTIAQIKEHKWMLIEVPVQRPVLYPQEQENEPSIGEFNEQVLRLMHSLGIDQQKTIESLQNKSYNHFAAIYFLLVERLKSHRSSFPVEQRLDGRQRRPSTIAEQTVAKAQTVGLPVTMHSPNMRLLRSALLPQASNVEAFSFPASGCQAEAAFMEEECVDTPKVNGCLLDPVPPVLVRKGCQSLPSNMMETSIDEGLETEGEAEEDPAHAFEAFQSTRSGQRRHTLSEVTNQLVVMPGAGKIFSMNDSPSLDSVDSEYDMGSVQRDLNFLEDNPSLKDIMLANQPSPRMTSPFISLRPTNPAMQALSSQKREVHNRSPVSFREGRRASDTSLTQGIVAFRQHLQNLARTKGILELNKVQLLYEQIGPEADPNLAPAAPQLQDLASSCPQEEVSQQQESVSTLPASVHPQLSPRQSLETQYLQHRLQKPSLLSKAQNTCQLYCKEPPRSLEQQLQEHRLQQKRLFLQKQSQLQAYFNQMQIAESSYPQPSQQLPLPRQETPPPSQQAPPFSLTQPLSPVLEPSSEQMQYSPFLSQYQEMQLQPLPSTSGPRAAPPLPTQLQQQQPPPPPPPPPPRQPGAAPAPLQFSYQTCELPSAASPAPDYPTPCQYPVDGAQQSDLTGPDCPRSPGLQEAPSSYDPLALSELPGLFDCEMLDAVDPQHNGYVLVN
T3 sequence (Q8N752 whole entry): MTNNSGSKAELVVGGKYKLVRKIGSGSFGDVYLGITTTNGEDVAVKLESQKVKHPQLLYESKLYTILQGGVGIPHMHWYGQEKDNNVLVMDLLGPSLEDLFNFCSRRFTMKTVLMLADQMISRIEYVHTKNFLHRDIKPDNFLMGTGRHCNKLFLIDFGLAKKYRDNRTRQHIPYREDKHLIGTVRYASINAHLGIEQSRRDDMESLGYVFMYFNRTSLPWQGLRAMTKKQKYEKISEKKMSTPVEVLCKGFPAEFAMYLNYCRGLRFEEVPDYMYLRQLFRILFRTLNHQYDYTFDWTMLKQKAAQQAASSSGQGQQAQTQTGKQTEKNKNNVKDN
Chain of STK32B/YANK2 (Q9NY57 whole entry): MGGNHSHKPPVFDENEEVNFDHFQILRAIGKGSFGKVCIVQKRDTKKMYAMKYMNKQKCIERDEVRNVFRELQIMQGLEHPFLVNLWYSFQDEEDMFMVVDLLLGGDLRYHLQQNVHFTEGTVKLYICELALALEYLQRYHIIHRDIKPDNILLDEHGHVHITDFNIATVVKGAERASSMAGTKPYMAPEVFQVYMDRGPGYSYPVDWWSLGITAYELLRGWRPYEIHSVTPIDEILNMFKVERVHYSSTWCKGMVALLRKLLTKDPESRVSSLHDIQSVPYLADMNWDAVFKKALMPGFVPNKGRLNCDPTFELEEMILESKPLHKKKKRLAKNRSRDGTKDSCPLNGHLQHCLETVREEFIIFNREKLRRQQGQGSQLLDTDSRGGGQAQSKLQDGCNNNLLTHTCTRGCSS

In the case of `COc1cc(N2CCN(C)CC2)c(C)cc1Nc1ncc(Br)c(Nc2cccnc2N(C)C)n1` [TP-5801], the remaining activity at 0.3 µM (ACK1; [1]) is reported as 1.69%, the remaining activity at 0.3 µM (ACK1; [2]) is reported as 1.45% and the remaining activity at 0.3 µM (ASK1/MAP3K5; [1]) is reported as 99%. For the same compound, the remaining activity at 0.3 µM (ASK1/MAP3K5; [2]) was 98.6%, the remaining activity at 0.3 µM (CDK17/cyclin Y (PCTK2)) was 101% and the remaining activity at 0.3 µM (CDK5/P25; [1]) was 123%. It also gave a remaining activity at 0.3 µM (CDK5/P25; [2]) of 115%, a remaining activity at 0.3 µM (CK1a1L; [1]) of 101% and a remaining activity at 0.3 µM (CK1a1L; [2]) of 99.8%. The remaining activity at 0.3 µM (DDR2; [1]) was 77.1%, the remaining activity at 0.3 µM (DDR2; [2]) was 75.8% and the remaining activity at 0.3 µM (FRK/PTK5; [1]) was 72%. For the same compound, the remaining activity at 0.3 µM (FRK/PTK5; [2]) was 71%, the remaining activity at 0.3 µM (HPK1/MAP4K1; [1]) was 25.8% and the remaining activity at 0.3 µM (HPK1/MAP4K1; [2]) was 25.6%. The remaining activity at 0.3 µM (KSR2; [1]) was 96.9%, the remaining activity at 0.3 µM (KSR2; [2]) was 94.2% and the remaining activity at 0.3 µM (MAPKAPK2; [1]) was 99%. It also gave a remaining activity at 0.3 µM (MAPKAPK2; [2]) of 96.4%, a remaining activity at 0.3 µM (NLK; [1]) of 92.3% and a remaining activity at 0.3 µM (NLK; [2]) of 85.8%. It also gave a remaining activity at 0.3 µM (PKCiota; [1]) of 101%, a remaining activity at 0.3 µM (PKCiota; [2]) of 99.1% and a remaining activity at 0.3 µM (PKCmu/PRKD1; [1]) of 67.7%. For the same compound, the remaining activity at 0.3 µM (PKCmu/PRKD1; [2]) was 67.3%, the remaining activity at 0.3 µM (PLK4/SAK; [1]) was 74.8% and the remaining activity at 0.3 µM (PLK4/SAK; [2]) was 72.8%. The remaining activity at 0.3 µM (SIK2; [1]) was 79.4%, the remaining activity at 0.3 µM (SIK2; [2]) was 78.3% and the remaining activity at 0.3 µM (STK32B/YANK2; [1]) was 96.4%. For the same compound, the remaining activity at 0.3 µM (STK32B/YANK2; [2]) was 94.8%, the remaining activity at 0.3 µM (STK38L/NDR2; [1]) was 53.1% and the remaining activity at 0.3 µM (STK38L/NDR2; [2]) was 52.8%. The remaining activity at 0.3 µM (TESK2; [1]) was 92.8%, the remaining activity at 0.3 µM (TESK2; [2]) was 90.1% and the remaining activity at 0.3 µM (TSSK2; [1]) was 88.4%. The remaining activity at 0.3 µM (TSSK2; [2]) was 86.9%, the remaining activity at 0.3 µM (c-Src; [1]) was 107% and the remaining activity at 0.3 µM (c-Src; [2]) was 106%.
